Experiments:
Assay type in all cases: in vivo
male ICR mouse [1] = assay: Elevated plus maze (EPM) test in mouse; details: po, p.o, 1 hour after dosing, 5 minutes observation, read-out: Elevated Plus Maze Change index in Open-Arm Time
Source text: Elevated plus maze (EPM) is one of representative models that examine an anti-anxiety activity of a test material. Equipment used for an EPM test has a crossroad shape raised in a high position off the ground, and is configured in such a cliff shape that both sides of one road are protected with high walls and the other road is free from the wall. Among them, the road in the cliff shape is referred to as an ‘open arm,’ and the road protected by the walls is referred to as a ‘close arm.’ In this case, a level of the anxiety of a mouse may be measured by determining in which arm the mouse stays longer. In general, the mouse stays longer in the close arm than the open arm, but a mouse treated with a medicine showing an anti-anxiety effect stays relatively longer in the open arm. A test material dissolved in a suitable vehicle was orally administered to a male ICR mouse weighing 20 to 25 g at an amount of 10 mg/kg. After 1 hour of the oral administration, the mouse was put on the center of an EPM equipment to measure how long the mouse stays in the open arm within a time range of 5 minutes. The anti-anxiety effect of the test material is represented by the ‘Change index in Open-Arm Time’ {[(open arm duration in test material-administered group−open arm duration in vehicle-administered group)/(open arm duration in vehicle administered group)]×100%}.

male ICR mouse [2] = assay: Acetic acid-induced writhing test in mouse; details: po, p.o, acetic acid i.p. 1 hour after dosing, writhing counted for 10 minutes, read-out: Writhing Test Suppression of pain response
Procedure: An acetic acid-induced writhing test is one of models for measuring an analgesic effect of drugs. A test material dissolved in a suitable vehicle was orally administered to a male ICR mouse weighing 30 to 35 g at an amount of 10 mg/kg. After 1 hour of the oral administration, […] of an aqueous 0.8% acetic acid solution was intraperitoneally injected into the male ICR mouse to induce the abdominal pain of the male ICR mouse. Right after the administration of acetic acid, the male ICR mouse was put into an empty cage, and the number of writhing behaviors of the mice was counted for 10 minutes. The term “writhing” represents a reflex action in which the mouse overtly extends its abdomen by stretching its hind legs due to the abdominal pain. The analgesic effect of the test material is represented by the ‘suppression of pain response’ {[(Writhing number of vehicle-administered group−Writhing number of Test material—administered group)/(Writhing number of Solvent-administered group)]×100%}.

male ICR mouse [3] = assay: Head twitch potentiation induced by 5-HTP (5-HTP potentiation test) in mouse; details: po, 0.5 h, p.o, 5-HTP 80 mg/kg + Carbidopa 25 mg/kg i.p. 30 minutes after dosing, head twitches counted for 2 minutes, negative = 5-HT2A antagonist, read-out: 5-HTP Potentiation Increase rate in Head Twitch No.
Procedure: When 5-hydroxy-L-tryptophan (5-HTP) is administered into a mouse, a head twitch phenomenon is observed since serotonin is increasingly secreted in the mouse. […] By using this principle, it is possible to search an effect of the representative antidepressant agent. A test material dissolved in a suitable vehicle was orally administered to a male ICR mouse weighing 20 to 25 g at an amount of 30 mg/kg. After 30 minutes of the oral administration, 5-HTP (80 mg/kg) and 5-HTP peripheral decarbozylase inhibitor ‘Carbidopa’ (25 mg/kg) were intraperitoneally administered to the mouse. After 30 minutes of the intraperitoneal administration, the mouse was put into an observation cage, and head twitches of the mouse were counted for 2 minutes. The anti-depression effect of the test material is represented by the ‘Increase rate in Head Twitch No.’ {[(Head Twitch No. of Test material-administered group−Head Twitch No. of vehicle-administered group)/(Head Twitch No. of vehicle-administered group)]×100%}. […] In addition to the selective serotonin reuptake inhibitor (SSRI) that has been widely used as an antidepressant agent in the clinical fields, it was tested that 5-HT2A antagonists such as nefazodone and trazodone also have an antidepressant effect.

male ICR mouse [4] = assay: Hot plate test in mouse; details: po, p.o, 1 hour after dosing, hot plate 55° C., read-out: Hot Plate Test Increase in latency of avoidance response
Procedure: A hot plate test is one of representative models for measuring an analgesic effect of drugs. A test material dissolved in a suitable vehicle was orally administered to a male ICR mouse weighing 25 to 30 g at an amount of 30 mg/kg. After 1 hour of the oral administration, the mouse was put on a hot plate (55° C.). A latency was recorded from the time right after a mouse is put on a hot plate to the time when avoidance responses (flinching, licking, jumping, etc.) to pain are observed from forefeet or rear legs of the mouse. The analgesic effect of the test material is represented by the ‘Increase in latency of avoidance response’ {[(Latency of avoidance response to pain of Test material-administered group−Latency of avoidance response to pain of vehicle-administered group)/(Latency of avoidance response to pain of Solvent-administered group)]×100%}.

Compound | change in vivo at 10 mg/kg (male ICR mouse [1]) [%] | inhibition in vivo at 10 mg/kg (male ICR mouse [2]) [%] | change in vivo at 30 mg/kg (male ICR mouse [3]) [%] | change in vivo at 30 mg/kg (male ICR mouse [4]) [%]
NC(=O)OC(CC(=O)N1CCN(c2ccc(F)cc2)CC1)c1ccccc1 (centres unmarked) [Example 1, carbamic acid 3-[4-(4-fluoro-phenyl)-piperazin-1-yl]-3-oxo-1-phenyl-propyl ester] | 25.6 | 73.5 | -65.7 | 17
COc1ccc(N2CCN(C(=O)CC(OC(N)=O)c3ccccc3)CC2)cc1 (centres unmarked) [Example 2, carbamic acid 3-[4-(4-methoxy-phenyl)-piperazin-1-yl]-3-oxo-1-phenyl-propyl ester] | – | 54.6 | – | 37.5
NC(=O)OC(CC(=O)N1CCN(c2ccc(Cl)c(Cl)c2)CC1)c1ccccc1 (centres unmarked) [Example 3, carbamic acid 3-[4-(3,4-dichloro-phenyl)-piperazin-1-yl]-3-oxo-1-phenyl-propyl ester] | 9.7 | 65 | 54.5 | 38.5
Cc1ccc(N2CCN(C(=O)CC(OC(N)=O)c3ccccc3)CC2)cc1 (centres unmarked) [Example 4, carbamic acid 3-oxo-1-phenyl-3-(4-p-tolyl-piperazin-1-yl)-propyl ester] | 41.1 | 74.6 | -7.1 | 34.1
COc1ccc(N2CCN(C(=O)CC(OC(N)=O)c3ccccc3)CC2)cc1OC (centres unmarked) [Example 5, carbamic acid 3-[4-(3,4-dimethoxy-phenyl)-piperazin-1-yl]-3-oxo-1-phenyl-propyl ester] | – | 79.7 | – | 39.2
COc1ccc(N2CCN(C(=O)CC(OC(N)=O)c3ccc(Cl)cc3)CC2)cc1OC (centres unmarked) [Example 6, carbamic acid 1-(4-chloro-phenyl)-3-[4-(3,4-dimethoxy-phenyl)-piperazin-1-yl]-3-oxo-propyl ester] | – | 44.8 | – | 11
COc1ccc(N2CCN(C(=O)CC(OC(N)=O)c3ccc(F)cc3)CC2)cc1OC (centres unmarked) [Example 7, carbamic acid 3-[4-(3,4-dimethoxy-phenyl)-piperazin-1-yl]-1-(4-fluoro-phenyl)-3-oxo-propyl ester] | – | 40.9 | – | 14.7
COc1ccc(N2CCN(C(=O)CC(OC(N)=O)c3ccc(C)cc3)CC2)cc1OC (centres unmarked) [Example 8, carbamic acid 3-[4-(3,4-dimethoxy-phenyl)-piperazin-1-yl]-3-oxo-1-p-tolyl-propyl ester] | – | 30.1 | – | 10.9
COc1ccc(N2CCN(C(=O)CC(OC(N)=O)c3ccccc3)CC2)c(OC)c1 (centres unmarked) [Example 9, carbamic acid 3-[4-(2,4-dimethoxy-phenyl)-piperazin-1-yl]-3-oxo-1-phenyl-propyl ester] | – | 33.1 | – | 16.4
NC(=O)OC(CC(=O)N1CCN(c2cc(Cl)cc(Cl)c2)CC1)c1ccccc1 (centres unmarked) [Example 10, carbamic acid 3-[4-(3,5-dichloro-phenyl)-piperazin-1-yl]-3-oxo-1-phenyl-propyl ester] | 27.3 | 26 | 85.7 | 14.8
COc1cc(OC)cc(N2CCN(C(=O)CC(OC(N)=O)c3ccccc3)CC2)c1 (centres unmarked) [Example 11, carbamic acid 3-[4-(3,5-dimethoxy-phenyl)-piperazin-1-yl]-3-oxo-1-phenyl-propyl ester] | 19.8 | 5.5 | 31.3 | 46.1
NC(=O)OC(CC(=O)N1CCN(c2ccc3c(c2)OCO3)CC1)c1ccccc1 (centres unmarked) [Example 14, carbamic acid 3-(4-benzo[1,3]dioxol-5-yl-piperazin-1-yl)-3-oxo-1-phenyl-propyl ester] | – | 64 | – | 17.8
COc1ccc(C(CC(=O)N2CCN(c3ccccc3)CC2)OC(N)=O)cc1 (centres unmarked) [Example 15, carbamic acid 1-(4-methoxy-phenyl)-3-oxo-3-(4-phenyl-piperazin-1-yl)-propyl ester] | – | 35.1 | – | 17.9
NC(=O)OC(CC(=O)N1CCN(c2ccccn2)CC1)c1ccccc1 (centres unmarked) [Example 24, carbamic acid 3-oxo-1-phenyl-3-(4-pyridin-2-yl-piperazin-1-yl)-propyl ester] | – | 61.2 | – | 28.1
NC(=O)OC(CC(=O)N1CCN(c2ncccn2)CC1)c1ccccc1 (centres unmarked) [Example 25, carbamic acid 3-oxo-1-phenyl-3-(4-pyrimidin-2-yl-piperazin-1-yl)-propyl ester] | – | 59.3 | – | 15.9
NC(=O)OC(CC(=O)N1CCN(c2ncc(Cl)cc2Cl)CC1)c1ccccc1 (centres unmarked) [Example 26, carbamic acid 3-[4-(3,5-dichloro-pyridin-2-yl)-piperazin-1-yl]-3-oxo-1-phenyl-propyl ester] | – | 30.8 | – | 20.6
NC(=O)OC(CC(=O)N1CCN(c2ccc(F)c(F)c2)CC1)c1ccccc1 (centres unmarked) [Example 33, carbamic acid 3-[4-(3,4-difluoro-phenyl)-piperazin-1-yl]-3-oxo-1-phenyl-propyl ester] | – | 74.5 | – | 43.6
NC(=O)OC(CC(=O)N1CCN(c2ccc(Cl)cc2)CC1)c1ccccc1 (centres unmarked) [Example 38, carbamic acid 3-[4-(4-chloro-phenyl)-piperazin-1-yl]-3-oxo-1-phenyl-propyl ester] | – | 66.1 | – | 38.3
COc1ccc(N2CCN(C(=O)CCC(OC(N)=O)c3ccccc3)CC2)cc1OC (centres unmarked) [Example 41, carbamic acid 4-[4-(3,4-dimethoxy-phenyl)-piperazin-1-yl]-4-oxo-1-phenyl-butyl ester] | – | 31.2 | – | 28.7
NC(=O)OC(CC(=O)N1CCN(c2ccccc2)CC1)c1ccccc1[N+](=O)[O-] (centres unmarked) [Example 42, carbamic acid 1-(2-nitro-phenyl)-3-oxo-3-(4-phenyl-piperazin-1-yl)-propyl ester] | 27.3 | – | 33.3 | –
COc1ccc(N2CCN(C(=O)C[C@H](OC(N)=O)c3ccccc3)CC2)cc1OC [Example 65, (S)-carbamic acid 3-[4-(3,4-dimethoxy-phenyl)-piperazin-1-yl]-3-oxo-1-phenyl-propyl ester] | 74.7 | – | 91.6 | 38.6
COc1ccc(N2CCN(C(=O)C[C@H](OC(N)=O)c3ccccc3)CC2)cc1 [Example 69, (S)-carbamic acid 3-[4-(4-methoxy-phenyl)-piperazin-1-yl]-3-oxo-1-phenyl-propyl ester] | 57.3 | – | -14.3 | 22.9

Source: US8901116B2, “Method for treating pain, anxiety or depression using carbamoyloxy alkanoyl piperazine compound” (SK Biopharmaceuticals Co., Ltd., priority 2007, dated 2014)
